Counter-ions that a name gives are not always drawn.
What was measured:
Type in all cases: biochemical
Conditions in all cases: 100 uM ATP, 3 hr incubation, four-parameter fit
NUAK1 = target: T1, NUAK1 (Homo sapiens, UniProt O60285); assay: Phosphorylation assay ([γ-32P]-ATP, P81 paper), NUAK1
T1 construct: purchased SignalChem
T1 sequence (O60285 1-661): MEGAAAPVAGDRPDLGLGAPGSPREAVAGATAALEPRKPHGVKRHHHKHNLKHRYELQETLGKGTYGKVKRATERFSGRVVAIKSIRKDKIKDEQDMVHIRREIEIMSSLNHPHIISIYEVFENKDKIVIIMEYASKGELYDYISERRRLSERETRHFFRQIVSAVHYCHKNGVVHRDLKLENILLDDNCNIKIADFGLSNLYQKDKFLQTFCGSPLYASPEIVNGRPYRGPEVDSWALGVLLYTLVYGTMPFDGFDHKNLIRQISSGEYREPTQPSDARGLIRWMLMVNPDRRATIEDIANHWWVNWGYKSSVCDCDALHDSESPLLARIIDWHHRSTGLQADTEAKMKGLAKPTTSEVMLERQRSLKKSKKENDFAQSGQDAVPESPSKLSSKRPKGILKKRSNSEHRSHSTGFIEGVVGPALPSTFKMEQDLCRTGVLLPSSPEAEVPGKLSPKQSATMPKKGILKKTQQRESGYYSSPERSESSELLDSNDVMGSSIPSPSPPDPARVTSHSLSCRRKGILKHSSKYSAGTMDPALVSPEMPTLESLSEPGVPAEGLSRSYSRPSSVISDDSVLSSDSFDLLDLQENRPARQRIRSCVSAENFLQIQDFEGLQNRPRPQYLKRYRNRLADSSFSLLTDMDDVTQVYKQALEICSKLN
Text: (§1) Kinase activity and inhibition can be measured using binding assays as well as phosphorylation assays. In the binding assays, e.g. KinaseSeeker (Luceome Biotechnologies, Tucson, Ariz.) or Kinomescan (Eurofins), the competitive displacement of a kinase active site binding probe by a compound is detected and serves as a measure of compound inhibition. In phosphorylation assays, e.g. radioactivity assays or ADP-Glo (Promega) assays, the phosphorylation of a peptide or protein substrate is used to evaluate enzyme activity, and the reduction of phosphorylation in presence of a compounds serves as a measure of compound inhibition. The inhibitor compounds described herein are screened in the following manner.
(§2) For phosphorylation assays, 30 ng of the active kinase (SignalChem) in kinase assay buffer was incubated with either inhibitor in DMSO or DMSO (no inhibitor control). Reaction was started by the addition of 10 mM magnesium sulfate, 100 uM [γ-^32P]-ATP and appropriate concentration of the relevant peptide substrate. After 3 hr incubation, the reaction was terminated by spotting 25 μl of the reaction mixture onto P81 paper strips. The paper strips were air dried, washed three times with 0.85% phosphoric acid and finally with acetone. The P81 paper was immersed in 10 mL of scintillation cocktail, and the radioactive counts were measured. For dose dependent curves, kinases were treated at varying concentrations of the compound in activity assays and IC50 values were determined using a four-parameter fit. The IC50 values against a select set of kinases is given below.

NUAK2 = target: T2, NUAK2 (Homo sapiens, UniProt Q9H093); assay: Phosphorylation assay ([γ-32P]-ATP, P81 paper), NUAK2
T2 construct: purchased SignalChem
T2 sequence (Q9H093 1-628): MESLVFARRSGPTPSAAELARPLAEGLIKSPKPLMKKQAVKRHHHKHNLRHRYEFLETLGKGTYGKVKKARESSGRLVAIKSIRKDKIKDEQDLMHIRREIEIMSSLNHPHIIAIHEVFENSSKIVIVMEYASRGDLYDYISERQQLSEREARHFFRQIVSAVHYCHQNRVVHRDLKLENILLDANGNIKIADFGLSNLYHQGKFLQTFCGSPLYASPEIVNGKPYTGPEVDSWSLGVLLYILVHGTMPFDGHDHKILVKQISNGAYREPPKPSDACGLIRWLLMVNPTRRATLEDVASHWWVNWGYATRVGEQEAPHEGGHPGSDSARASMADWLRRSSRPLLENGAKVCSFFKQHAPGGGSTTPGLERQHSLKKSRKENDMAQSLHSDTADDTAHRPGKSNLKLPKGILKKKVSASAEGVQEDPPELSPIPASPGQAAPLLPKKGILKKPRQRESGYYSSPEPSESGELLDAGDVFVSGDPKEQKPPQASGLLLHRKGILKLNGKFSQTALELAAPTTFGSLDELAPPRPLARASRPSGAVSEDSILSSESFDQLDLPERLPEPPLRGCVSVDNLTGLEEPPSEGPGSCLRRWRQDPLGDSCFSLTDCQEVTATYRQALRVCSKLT
Text: as §1, §2

SIK2 = target: T3, SIK2 (Homo sapiens, UniProt Q9H0K1); assay: Phosphorylation assay ([γ-32P]-ATP, P81 paper), SIK2
T3 construct: purchased SignalChem
T3 sequence (Q9H0K1 whole entry): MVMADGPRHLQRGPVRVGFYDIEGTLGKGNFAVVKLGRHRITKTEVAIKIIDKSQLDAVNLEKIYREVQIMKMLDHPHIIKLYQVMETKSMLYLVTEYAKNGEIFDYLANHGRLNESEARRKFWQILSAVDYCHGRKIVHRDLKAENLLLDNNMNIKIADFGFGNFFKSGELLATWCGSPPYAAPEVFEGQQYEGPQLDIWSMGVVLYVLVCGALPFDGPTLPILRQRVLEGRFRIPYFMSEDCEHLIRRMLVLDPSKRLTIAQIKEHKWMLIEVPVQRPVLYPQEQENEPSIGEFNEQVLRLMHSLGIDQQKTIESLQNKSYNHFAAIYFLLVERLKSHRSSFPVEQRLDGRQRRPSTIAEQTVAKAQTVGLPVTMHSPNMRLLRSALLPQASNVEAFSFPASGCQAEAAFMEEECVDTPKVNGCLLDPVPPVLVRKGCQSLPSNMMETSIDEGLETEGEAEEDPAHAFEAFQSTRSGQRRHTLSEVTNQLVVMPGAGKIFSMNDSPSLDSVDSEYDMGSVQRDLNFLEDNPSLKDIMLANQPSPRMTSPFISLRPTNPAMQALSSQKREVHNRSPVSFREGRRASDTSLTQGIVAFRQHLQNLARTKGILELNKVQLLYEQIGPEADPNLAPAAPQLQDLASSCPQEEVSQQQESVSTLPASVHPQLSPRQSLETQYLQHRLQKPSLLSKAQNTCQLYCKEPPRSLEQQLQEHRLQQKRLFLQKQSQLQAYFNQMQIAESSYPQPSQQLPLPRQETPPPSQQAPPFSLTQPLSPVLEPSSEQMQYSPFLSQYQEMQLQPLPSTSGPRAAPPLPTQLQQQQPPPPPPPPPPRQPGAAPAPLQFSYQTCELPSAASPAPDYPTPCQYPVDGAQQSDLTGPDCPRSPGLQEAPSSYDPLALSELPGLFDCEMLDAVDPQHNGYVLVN
Text: as §1, §2

CLK1 = target: T4, CLK1 (Homo sapiens, UniProt P49759); assay: Phosphorylation assay ([γ-32P]-ATP, P81 paper), CLK1
T4 construct: purchased SignalChem
T4 sequence (P49759 whole entry): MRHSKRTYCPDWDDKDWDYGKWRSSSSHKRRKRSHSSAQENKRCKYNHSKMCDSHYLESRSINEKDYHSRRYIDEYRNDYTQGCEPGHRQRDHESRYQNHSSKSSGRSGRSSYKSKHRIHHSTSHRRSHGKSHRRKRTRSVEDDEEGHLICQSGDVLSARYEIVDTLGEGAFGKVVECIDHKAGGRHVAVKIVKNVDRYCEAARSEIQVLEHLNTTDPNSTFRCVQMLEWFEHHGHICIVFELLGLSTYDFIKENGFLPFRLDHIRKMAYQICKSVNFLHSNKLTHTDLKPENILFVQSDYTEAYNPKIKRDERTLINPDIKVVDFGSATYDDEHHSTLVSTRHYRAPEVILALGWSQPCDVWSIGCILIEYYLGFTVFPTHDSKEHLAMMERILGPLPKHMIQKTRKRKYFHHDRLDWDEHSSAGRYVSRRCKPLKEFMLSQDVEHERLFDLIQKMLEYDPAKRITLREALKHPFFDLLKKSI
Text: as §1, §2

CLK2 = target: T5, CLK2 (Homo sapiens, UniProt P49760); assay: Phosphorylation assay ([γ-32P]-ATP, P81 paper), CLK2
T5 construct: purchased SignalChem
T5 sequence (P49760 whole entry): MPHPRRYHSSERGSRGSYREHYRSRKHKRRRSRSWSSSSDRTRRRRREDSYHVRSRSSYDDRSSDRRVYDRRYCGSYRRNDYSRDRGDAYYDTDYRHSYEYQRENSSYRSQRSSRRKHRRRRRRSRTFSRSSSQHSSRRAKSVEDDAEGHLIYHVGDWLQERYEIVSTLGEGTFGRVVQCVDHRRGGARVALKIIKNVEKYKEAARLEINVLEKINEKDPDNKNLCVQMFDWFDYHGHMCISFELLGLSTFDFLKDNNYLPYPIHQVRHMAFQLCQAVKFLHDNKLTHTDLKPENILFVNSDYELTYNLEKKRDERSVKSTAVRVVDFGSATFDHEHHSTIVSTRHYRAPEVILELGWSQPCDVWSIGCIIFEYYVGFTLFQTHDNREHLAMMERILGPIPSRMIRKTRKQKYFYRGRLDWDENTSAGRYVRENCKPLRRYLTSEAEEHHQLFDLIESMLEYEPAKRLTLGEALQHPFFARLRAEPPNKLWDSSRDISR
Text: as §1, §2

IC50 (NUAK1)	IC50 (NUAK2)	IC50 (SIK2)	IC50 (CLK1)	IC50 (CLK2)	Structure (SMILES)
1.3 µM	4.6 µM	18.6 µM	2.7 µM	1.5 µM	CN1Cc2ccccc2N(C)c2cc(Nc3ccn(C4CCNCC4)n3)ncc21 [Compound 14, 5,11-dimethyl-N-(1-(piperidin-4-yl)-1H-pyrazol-3-yl)-10,11-dihydro-5H-benzo[e]pyrido[3,4-b][1,4]diazepin-3-amine]
1.3 µM	7 µM	0.69 µM	> 50 µM	9.5 µM	CN1Cc2cnc(Nc3ccn(C4CCNCC4)n3)cc2N(C)c2ccccc21 [Compound 24, 5,10-dimethyl-N-(1-(piperidin-4-yl)-1H-pyrazol-3-yl)-10,11-dihydro-5H-benzo[b]pyrido[4,3-e][1,4]diazepin-3-amine]
0.13 µM	0.34 µM	1.5 µM	57.8 µM	33 µM	CN1C(=O)c2ccccc2N(C)c2cc(Nc3ccn(C4CCNCC4)n3)ncc21 [Compound 30, 5,11-dimethyl-3-((1-(piperidin-4-yl)-H-pyrazol-3-yl)amino)-5,11-dihydro-10H-benzo[e]pyrido[3,4-b][1,4]diazepin-10-one TFA Salt]

From US20210070731A1, “TRICYCLIC KINASE INHIBITORS AND USE THEREOF” (priority 2019, published 2021)
